# From patent US20220282217A1, “COMPOSITIONS AND METHODS FOR PREPARING T CELL COMPOSITIONS AND USES THEREOF” (priority 2019, published 2022)
# Like-named read-outs stand apart in the source and are kept apart here. Where a SMILES comes first, the peptide text is derived from it.
# Columns and labels:
# [1] = test system: 293T cells transduced with GATA3 neoORF, expressing the HLA of interest; assay: Presentation of GATA3 neoantigens: HLA-eluted peptides by targeted MS/MS (PRM) (Table 14); format: cell-based, human
# Description: To assess whether antigens could be processed and presented from the larger polypeptide context, peptides eluted from HLA molecules isolated from cells expressing the genes of interest were analyzed by tandem mass spectrometry (MS/MS).
# Between 50 and 700 million of the transduced cells expressing peptides encoded by the GATA3 neoORF sequence were cultured and peptides were eluted from HLA-peptide complexes using an acid wash. Eluted peptides were then analyzed by targeted MS/MS using PRM. Spectral comparison between peptides derived from GATA3 neoORF and corresponding synthetic peptides were performed to confirm each detection.
# [2] = target: HLA-A02.01 (Homo sapiens, UniProt P04439, D140Y/D185E/D98H/E176V/E277Q/G131W/G231S/I119V/I121R/I166T/I218V/L300P/L318F/N151K/N90K/P208A/P217A/Q86G/Q94H/R138H/R169H/T345S); assay: Class I MHC peptide binding affinity (displacement of radiolabeled reference peptide); settings: (nM)), allele A02.01
# In short: (§1)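 Radiolabeled reference peptide/MHCI complexes; test peptide titration, 2 d incubation; bound label remaining read by size-exclusion gel filtration.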
# [3] = target: HLA-B08.01 (Homo sapiens, UniProt P01889, A93T/A95T/D138N/E176V/E187T/K202T/Q94N/R180D/S35A/V36M/Y33D/Y91F); assay: as above
# In short: as §1
# [4] = test system: HLA-A24.02; assay: Class I MHC peptide binding stability (pMHC-I dissociation, 125I-labeled light chain); set-up: species or system human; settings: allele A24.02
# [5] = target: HLA-A24.02; assay: Class I MHC peptide binding affinity (displacement of radiolabeled reference peptide); set-up: species or system human; settings: allele A24.02; read-out: Observed Affinity (IC50; (nM))
# [6] = target: HLA-B07.02 (Homo sapiens, UniProt P01889); assay: Class I MHC peptide binding stability (pMHC-I dissociation, 125I-labeled light chain); set-up: made in house; host or cells: E. coli; settings: Allele B07.02
# [7] = target: T1, HLA-A02.01 (Homo sapiens, UniProt P04439, D140Y/D185E/D98H/E176V/E277Q/G131W/G231S/I119V/I121R/I166T/I218V/N151K/N90K/P208A/P217A/Q86G/Q94H/R138H/R169H); assay: as above; settings: allele A02.01
# T1 construct: made in house; host or cells: E. coli
# [8] = target: HLA-A11.01 (Homo sapiens, UniProt P04439, A114D/D185E/E176A/F33Y/L180Q/S129P/T187R); assay: Class I MHC peptide binding affinity (displacement of radiolabeled reference peptide)
# [9] = target: T2, HLA-A03.01 (Homo sapiens, UniProt P04439); assay: as above; settings: (nM)), allele A03.01
# [10] = target: T2, HLA-A03.01; assay: Class I MHC peptide binding stability (pMHC-I dissociation, 125I-labeled light chain); set-up: made in house; host or cells: E. coli; settings: allele A03.01
# [11] = read-out: Observed Affinity (IC50
# [12] = GATA3 neoORF transduced 293T cells expressing HLA-A*02:01 protein
# [13] = allele A11.01, read-out: Observed Affinity (IC50, (nM))
structure (smiles),measurement,setting,value
CC[C@H](C)[C@H](NC(=O)[C@H](CCCCN)NC(=O)[C@H](CO)NC(=O)[C@@H](N)CCC(=O)O)C(=O)N[C@@H](CCSC)C(=O)N[C@@H](Cc1ccccc1)C(=O)N[C@@H](C)C(=O)N[C@H](C(=O)N[C@@H](CC(C)C)C(=O)O)[C@@H](C)O,detected by mass spectrometry (peptide eluted from HLA-peptide complexes),[1]; GATA3 neoORF transduced 293T cells expressing HLA-B*08:01 protein,detected
CC(C)C[C@H](NC(=O)[C@H](CO)NC(=O)[C@H](CO)NC(=O)[C@H](CCCNC(=N)N)NC(=O)[C@H](CCC(N)=O)NC(=O)[C@H](CC(C)C)NC(=O)[C@@H](NC(=O)[C@H](C)NC(=O)[C@@H](N)Cc1ccccc1)[C@@H](C)O)C(=O)O,detected by mass spectrometry (peptide eluted from HLA-peptide complexes),[1]; GATA3 neoORF transduced 293T cells expressing HLA-C*03:03 protein,detected
CC(C)C[C@H](NC(=O)[C@H](CO)NC(=O)[C@H](CCCCN)NC(=O)[C@H](CC(C)C)NC(=O)[C@@H](NC(=O)[C@H](CO)NC(=O)[C@@H]1CCCN1C(=O)[C@H](CC(C)C)NC(=O)[C@@H](N)Cc1ccccc1)[C@@H](C)O)C(=O)O,IC50,[2]; Observed Affinity (IC50,21 nM
same,IC50,[3],1.97 µM
same,Stability (T1/2 (h)),[4],1 h
same,IC50,[5],995 nM
CC[C@H](C)[C@H](NC(=O)[C@H](Cc1ccccc1)NC(=O)[C@H](CCCNC(=N)N)NC(=O)[C@@H]1CCCN1C(=O)[C@H](CC(C)C)NC(=O)[C@@H](N)CO)C(=O)N[C@@H](CC(C)C)C(=O)N[C@@H](CCSC)C(=O)N[C@@H](CCC(=O)O)C(=O)N[C@@H](CC(C)C)C(=O)O,Stability (T1/2 (h)),[6],0.4 h
same,Stability (T1/2 (h)),[7],0.5 h
same,IC50,[2]; [11],26 nM
same,Stability (T1/2 (h)),[4],0.2 h
same,IC50,[5],2770 nM
CSCC[C@H](NC(=O)[C@@H](N)CO)C(=O)N[C@@H](CC(C)C)C(=O)N[C@H](C(=O)NCC(=O)N1CCC[C@H]1C(=O)N1CCC[C@H]1C(=O)N[C@@H](C)C(=O)N[C@@H](CCCNC(=N)N)C(=O)N[C@H](C(=O)O)C(C)C)[C@@H](C)O,Stability (T1/2 (h)),[7],21.7 h
same,detected by mass spectrometry (peptide eluted from HLA-peptide complexes),[1]; [12],detected
CSCC[C@H](NC(=O)[C@H](C)N)C(=O)N[C@H](C(=O)N[C@H](C(=O)N[C@@H](CO)C(=O)N[C@@H](CO)C(=O)N[C@@H](CO)C(=O)N[C@@H](CCC(N)=O)C(=O)N[C@@H](CCCCN)C(=O)O)[C@@H](C)O)[C@@H](C)O (H-AMTTSSSQK-OH; N-terminus and C-terminus assumed),IC50,[8],162 nM
same,IC50,[9]; Observed Affinity (IC50,8.3 nM
CC(C)C[C@H](NC(=O)[C@@H]1CCCN1C(=O)[C@@H]1CCCN1C(=O)[C@@H](NC(=O)[C@H](CO)NC(=O)[C@H](CC(C)C)NC(=O)[C@H](CC(C)C)NC(=O)[C@H](CCC(=O)O)NC(=O)[C@@H](N)Cc1ccccc1)[C@@H](C)O)C(=O)O (H-FELLSTPPL-OH; N-terminus and C-terminus assumed),IC50,[2]; Observed Affinity (IC50,225 nM
same,IC50,[3],3.18 µM
CC[C@H](C)[C@H](NC(=O)[C@@H](N)CCCCN)C(=O)N[C@@H](CO)C(=O)N[C@@H](CC(N)=O)C(=O)N[C@@H](Cc1c[nH]c2ccccc12)C(=O)N[C@@H](CO)C(=O)N[C@@H](CC(C)C)C(=O)N[C@@H](CCCCN)C(=O)N[C@@H](CCCCN)C(=O)O (H-KISNWSLKK-OH; N-terminus and C-terminus assumed),IC50,[8]; [13],9.8 nM
same,IC50,[9]; [11],8.8 nM
CC(C)C[C@H](NC(=O)[C@H](Cc1ccccc1)NC(=O)[C@H](CO)NC(=O)[C@H](CC(C)C)NC(=O)[C@H](CS)NC(=O)[C@H](CO)NC(=O)[C@H](Cc1ccccc1)NC(=O)[C@H](CC(C)C)NC(=O)[C@@H](N)CCCCN)C(=O)O (H-KLFSCLSFL-OH; N-terminus and C-terminus assumed),Stability (T1/2 (h)),[7],14.3 h
same,IC50,[2]; [11],6 nM
same,Stability (T1/2 (h)),[10],0.8 h
same,IC50,[9]; [11],308 nM
CC(C)[C@H](NC(=O)[C@@H](N)CCCCN)C(=O)N[C@@H](CO)C(=O)N[C@@H](CCCNC(=N)N)C(=O)N[C@@H](CCC(=O)O)C(=O)N[C@@H](CC(N)=O)C(=O)N[C@H](C(=O)N[C@@H](CO)C(=O)N1CCC[C@H]1C(=O)N[C@@H](CCCCN)C(=O)O)[C@@H](C)O (H-KVSRENTSPK-OH; N-terminus and C-terminus assumed),Stability (T1/2 (h)),[10],13.5 h
same,IC50,[9]; [11],7 nM
CC(C)C[C@H](N)C(=O)N[C@@H](C)C(=O)N[C@H](C(=O)N[C@@H](CCC(=O)O)C(=O)N[C@@H](CCCCN)C(=O)N[C@@H](CO)C(=O)N[C@@H](CCCNC(=N)N)C(=O)N[C@@H](Cc1c[nH]c2ccccc12)C(=O)N[C@@H](CO)C(=O)O)[C@@H](C)O (H-LATEKSRWS-OH; N-terminus and C-terminus assumed),IC50,[2]; Observed Affinity (IC50,61000 nM
same,IC50,[3],37 µM
CC(C)C[C@H](N)C(=O)N[C@@H](C)C(=O)N[C@H](C(=O)N[C@@H](CCC(=O)O)C(=O)N[C@@H](CCCCN)C(=O)N[C@@H](CO)C(=O)N[C@@H](CCCNC(=N)N)C(=O)N[C@@H](Cc1c[nH]c2ccccc12)C(=O)N[C@@H](CO)C(=O)NCC(=O)O)[C@@H](C)O (H-LATEKSRWSG-OH; N-terminus and C-terminus assumed),IC50,[2]; Observed Affinity (IC50,23300 nM
same,IC50,[3],46.6 µM
CC(C)C[C@H](NC(=O)[C@@H]1CCCN1C(=O)[C@H](CO)NC(=O)[C@H](CCCNC(=N)N)NC(=O)[C@H](CC(C)C)NC(=O)[C@H](CCCCN)NC(=O)[C@H](CCCCN)NC(=O)[C@@H](N)CC(C)C)C(=O)O (H-LKKLRSPL-OH; N-terminus and C-terminus assumed),IC50,[3],0.0006 µM
CSCC[C@H](N)C(=O)N[C@@H](CC(C)C)C(=O)N[C@H](C(=O)NCC(=O)N1CCC[C@H]1C(=O)N1CCC[C@H]1C(=O)N[C@@H](C)C(=O)N[C@@H](CCCNC(=N)N)C(=O)N[C@H](C(=O)O)C(C)C)[C@@H](C)O (H-MLTGPPARV-OH; N-terminus and C-terminus assumed),IC50,[2]; [11],10.6 nM
same,detected by mass spectrometry (peptide eluted from HLA-peptide complexes),[1]; [12],detected
CSCC[C@H](NC(=O)[C@H](C)NC(=O)[C@@H](N)CO)C(=O)N[C@H](C(=O)N[C@H](C(=O)N[C@@H](CO)C(=O)N[C@@H](CO)C(=O)N[C@@H](CO)C(=O)N[C@@H](CCC(N)=O)C(=O)N[C@@H](CCCCN)C(=O)O)[C@@H](C)O)[C@@H](C)O (H-SAMTTSSSQK-OH; N-terminus and C-terminus assumed),IC50,[8]; [13],15.8 nM
same,IC50,[9]; [11],15.7 nM
CC(C)C[C@H](NC(=O)[C@H](C)NC(=O)[C@@H]1CCCN1C(=O)[C@@H](NC(=O)[C@H](CCCCN)NC(=O)[C@H](CCCCN)NC(=O)[C@H](CC(C)C)NC(=O)[C@@H](N)CO)C(C)C)C(=O)N[C@@H](CCCCN)C(=O)O (H-SLKKVPALK-OH; N-terminus and C-terminus assumed),IC50,[8]; [13],129 nM
same,IC50,[9]; [11],4.4 nM
CC[C@H](C)[C@H](NC(=O)[C@H](CC(N)=O)NC(=O)[C@H](CCSC)NC(=O)[C@H](Cc1c[nH]cn1)NC(=O)[C@H](CC(N)=O)NC(=O)CNC(=O)[C@H](CC(C)C)NC(=O)[C@@H](N)Cc1ccc(O)cc1)C(=O)N[C@@H](C)C(=O)O (H-YLGNHMNIA-OH; N-terminus and C-terminus assumed),Stability (T1/2 (h)),[7],0.6 h
same,IC50,[2]; Observed Affinity (IC50,117 nM
same,IC50,[3],0.872 µM
CC(C)C[C@H](NC(=O)[C@H](CC(=O)O)NC(=O)[C@H](CO)NC(=O)[C@H](CCC(N)=O)NC(=O)[C@H](CCC(N)=O)NC(=O)[C@H](CCC(N)=O)NC(=O)[C@H](CCC(N)=O)NC(=O)[C@H](CCC(N)=O)NC(=O)[C@@H](N)Cc1ccc(O)cc1)C(=O)O (H-YQQQQQSDL-OH; N-terminus and C-terminus assumed),Stability (T1/2 (h)),[7],0.4 h
same,IC50,[2]; Observed Affinity (IC50,799 nM
same,IC50,[3],18.9 µM
CC(C)C[C@H](NC(=O)[C@H](C)NC(=O)[C@H](CC(C)C)NC(=O)[C@H](Cc1c[nH]cn1)NC(=O)[C@@H]1CCCN1C(=O)[C@H](CCC(=O)O)NC(=O)[C@@H]1CCCN1C(=O)[C@H](CC(C)C)NC(=O)[C@@H](N)C(C)C)C(=O)O [VLPEPHLAL] (H-VLPEPHLAL-OH; N-terminus and C-terminus assumed),detected by mass spectrometry (peptide eluted from HLA-peptide complexes),[1]; [12],detected
